Reference: US20090042238A1, “Method of evaluating cell function, system for evaluating cell function, fluorescent microscope system, phototherapy method and phototherapy system” (NIKON CORPORATION, priority 2006, published 2009)

System: mitochondria in living cells
Assay: evaluation of cell function (phototoxic property) with confocal fluorescence microscope system
Assay type: cell-based
Source text: The following describes an example of the evaluation of cell function according to the present invention, performed with the confocal fluorescence microscope system of the First Embodiment.
RH123, used as a fluorescent dye, was applied to the mitochondria in living cells to prepare a specimen. The specimen was two-dimensionally scanned by irradiating an argon laser (488 nm) emitted in a predetermined intensity from the excitation light source 11, so as to obtain a fluorescence image of one frame.
FIG. 8(A) is the actual first fluorescence image obtained. Predetermined positions of the mitochondria (stained area) and the cellular cytoplasm (reference point) were specified by rectangular shaped frames, and a mean value of brightness values of the pixels in each of these specific areas was determined. These mean values were used as the brightness value of the mitochondria, and the brightness value of the cellular cytoplasm, respectively.
This procedure of obtaining the fluorescence image was repeated under the same conditions, and the brightness values of the mitochondria and the cellular cytoplasm were measured. FIG. 8(B) is the actual 50th fluorescence image, and FIG. 8(C) is the actual 150th fluorescence image obtained. It can be seen from FIG. 8 that the fluorescence image indeed undergoes changes as described in the First Embodiment with reference to FIG. 2.

## Rhodamin 123 [RH123]
Argon laser (488 nm) of a predetermined intensity, repeated imaging, FIG. 9(A)
  frame number in which the brightness value of the cellular cytoplasm has the peak (functional depression of the mitochondria complete): 50
Laser beam having a weaker intensity than in FIG. 9(A), otherwise same conditions, FIG. 9(B)
  frame number in which the brightness value of the cellular cytoplasm has the peak: 70
